Laboratory results taken from PubChem BioAssay (NCI).
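Values below derive from 48-hour exposures of cells grown in 96-well plates, with endpoints linearly interpolated between the two concentrations bracketing the appropriate inhibition level. Here, GI50 denotes the concentration required for 50% inhibition of growth. The concentration for full growth arrest is given as TGI.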

How the values were obtained:
Assay in all cases: NCI tumour cell line growth inhibition, 48 h
[1] = system: UO-31 renal
[2] = system: HS 578T breast
[3] = system: HCT-116 colon
[4] = system: 786-0 renal
[5] = system: T-47D breast
[6] = system: MDA-MB-231 breast
[7] = system: MCF7 breast
[8] = system: NCI-H460 lung
[9] = system: RXF 393 renal
[10] = system: MALME-3M melanoma
[11] = system: HOP-62 NSCLC
[12] = system: A498 renal
[13] = system: SR leukemia
[14] = system: EKVX NSCLC
[15] = system: SK-MEL-2 melanoma
[16] = system: MOLT-4 leukemia
[17] = system: SW-620 colon
[18] = system: UACC-257 melanoma
[19] = system: SK-MEL-5 melanoma
[20] = system: COLO 205 colon
[21] = system: KM12 colon
[22] = system: UACC-62 melanoma
[23] = system: SF-539 CNS
[24] = system: HCT-15 colon
[25] = system: SF-295 CNS
[26] = system: U251 CNS
[27] = system: HOP-92 NSCLC
[28] = system: RPMI-8226 leukemia
[29] = system: CAKI-1 renal
[30] = system: NCI-H226 lung
[31] = system: TK-10 renal
[32] = system: SK-MEL-28 melanoma
[33] = system: K-562 leukemia
[34] = system: ACHN renal
[35] = system: SF-268 CNS
[36] = system: NCI-H23 lung
[37] = system: DU-145 prostate
[38] = system: NCI/ADR-RES ovarian
[39] = system: CCRF-CEM leukemia
[40] = system: OVCAR-8 ovarian
[41] = system: BT-549 breast
[42] = system: SN12C renal
[43] = system: MDA-MB-435
[44] = system: SK-OV-3 ovarian
[45] = system: OVCAR-3 ovarian
[46] = system: A549 NSCLC
[47] = system: HT29 colon
[48] = system: M14 melanoma
[49] = system: NCI-H522 lung
[50] = system: HCC-2998 colon
[51] = system: SNB-75 CNS
[52] = system: MDA-MB-468 breast
[53] = system: PC-3 prostate
[54] = system: OVCAR-4 ovarian
[55] = system: IGROV1 ovarian
[56] = system: HL-60(TB) leukemia
[57] = system: OVCAR-5 ovarian
[58] = system: SNB-19 CNS
[59] = system: LOX IMVI melanoma

Molecule `Nc1ccc(-c2ccc3ncnc(N4CCc5cc(F)c(Cl)cc54)c3c2)cn1` has a GI50 [1] of 0.823 µM, a TGI [1] of 14.5 µM and a GI50 [2] of 1.14 µM. The TGI [2] was 4.6 µM, the GI50 [3] was 3.91 µM and the TGI [3] was 28.3 µM. The GI50 [4] was 1.82 µM, the TGI [4] was 14.7 µM and the GI50 [5] was 0.895 µM. It also gave a TGI [5] of 10.2 µM, a GI50 [6] of 2.84 µM and a TGI [6] of 15.2 µM. The GI50 [7] was 1.77 µM, the TGI [7] was 12.8 µM and the GI50 [8] was 2.73 µM. It also gave a TGI [8] of 15.8 µM, a GI50 [9] of 1.14 µM and a TGI [9] of 5.22 µM. The GI50 [10] was 1.57 µM, the TGI [10] was 10.1 µM and the GI50 [11] was 1.5 µM. For the same molecule, the TGI [11] was 27.3 µM, the GI50 [12] was 0.185 µM and the TGI [12] was 2.56 µM. The GI50 [13] was 3.24 µM, the TGI [13] was > 100 µM and the GI50 [14] was 1.26 µM. For the same molecule, the TGI [14] was 13.8 µM, the GI50 [15] was 5.55 µM and the TGI [15] was 44.6 µM. For the same molecule, the GI50 [16] was 2.68 µM, the TGI [16] was 8.4 µM and the GI50 [17] was 5.96 µM. It also gave a TGI [17] of 27.5 µM, a GI50 [18] of 5.76 µM and a TGI [18] of 23.1 µM. It also gave a GI50 [19] of 3.07 µM, a TGI [19] of 14.4 µM and a GI50 [20] of 5.58 µM. The TGI [20] was 21.2 µM, the GI50 [21] was 6.73 µM and the TGI [21] was 75.5 µM. The GI50 [22] was 1.91 µM, the TGI [22] was 14.6 µM and the GI50 [23] was 2.83 µM. For the same molecule, the TGI [23] was 13.3 µM, the GI50 [24] was 3.49 µM and the TGI [24] was 30.3 µM. It also gave a GI50 [25] of 2.39 µM, a TGI [25] of 16 µM and a GI50 [26] of 3.3 µM. The TGI [26] was 24.6 µM, the GI50 [27] was 2.37 µM and the TGI [27] was 20.7 µM. For the same molecule, the GI50 [28] was 3.51 µM, the TGI [28] was 70.1 µM and the GI50 [29] was 1.11 µM. The TGI [29] was 12.7 µM, the GI50 [30] was 1.59 µM and the TGI [30] was 40.8 µM. The GI50 [31] was 0.504 µM, the TGI [31] was 9.78 µM and the GI50 [32] was 2.76 µM. For the same molecule, the TGI [32] was 15.3 µM, the GI50 [33] was 6.24 µM and the TGI [33] was > 100 µM. For the same molecule, the GI50 [34] was 0.739 µM, the TGI [34] was 12.9 µM and the GI50 [35] was 2.2 µM. For the same molecule, the TGI [35] was 50.2 µM, the GI50 [36] was 5.26 µM and the TGI [36] was > 100 µM. The GI50 [37] was 1.61 µM, the TGI [37] was 15.8 µM and the GI50 [38] was 3.2 µM. The TGI [38] was 35.5 µM, the GI50 [39] was 3.31 µM and the TGI [39] was 26.2 µM. The GI50 [40] was 4.31 µM, the TGI [40] was > 100 µM and the GI50 [41] was 1.35 µM. The TGI [41] was 8.24 µM, the GI50 [42] was 2.11 µM and the TGI [42] was > 100 µM. For the same molecule, the GI50 [43] was 3.67 µM, the TGI [43] was 16.9 µM and the GI50 [44] was 2.18 µM. The TGI [44] was 7.09 µM, the GI50 [45] was 1.35 µM and the TGI [45] was 12.3 µM. The GI50 [46] was 1.55 µM, the TGI [46] was 15.3 µM and the GI50 [47] was 3.26 µM. For the same molecule, the TGI [47] was 23 µM, the GI50 [48] was 3.69 µM and the TGI [48] was 18 µM. The GI50 [49] was 2.37 µM, the TGI [49] was 19.4 µM and the GI50 [50] was 4.3 µM. The TGI [50] was 66.1 µM, the GI50 [51] was 0.545 µM and the TGI [51] was 4.21 µM. For the same molecule, the GI50 [52] was 0.657 µM, the TGI [52] was 2.31 µM and the GI50 [53] was 2.3 µM. For the same molecule, the TGI [53] was 27 µM, the GI50 [54] was 3.11 µM and the TGI [54] was 18.8 µM. It also gave a GI50 [55] of 0.639 µM, a TGI [55] of 2.88 µM and a GI50 [56] of 2.61 µM. The TGI [56] was 20.8 µM, the GI50 [57] was 2.32 µM and the TGI [57] was > 100 µM. For the same molecule, the GI50 [58] was 2.86 µM, the TGI [58] was 47.8 µM and the GI50 [59] was 3.31 µM. The TGI [59] was 24.6 µM.
